Assay results published in US9701664B2, “Fused 1,4-dihydrodioxin derivatives as inhibitors of heat shock transcription factor 1” (Cancer Research Technology Limited, priority 2013, dated 2017).
Read-outs that look alike come from different tables or passages of the source.

Tests used:
[1] = tested on: HSP72 in U2OS cells; assay: Cell-based ELISA (Cellisa) assay, U2OS cells: inhibition of 17-AAG-induced HSP72; conditions: U2OS cells (Examples 1-168)
[2] = tested on: U2OS cells; assay: Titre Blue cell viability assay, U2OS cells; type: cell-based

Row | Molecule | IC50 ([1]; Homo sapiens) [nM] | IC50 ([2]; Homo sapiens, U2OS) [nM] | IC50 [1] [nM] | IC50 [2] [nM]
1 | Cc1ccc(NC(=O)c2ccc3c(c2)OCCO3)cc1NC(=O)c1ccc2oc(=O)ccc2c1 [Example 4, N-(4-methyl-3-(2-oxo-2H-chromene-6-carboxamido)phenyl)-2,3-dihydrobenzo[b][1,4]dioxine-6-carboxamide] | 10 | 18 |  | 
2 | Cc1ccc(NC(=O)c2ccc3c(c2)OCCO3)cc1NC(=O)c1ccc2nc(OCCCN(C)C)ccc2c1 [Example 51, N-(5-(2,3-dihydrobenzo[b][1,4]dioxine-6-carboxamido)-2-methylphenyl)-2-(3-(dimethylamino)propoxy)quinoline-6-carboxamide] | 4 | 10 |  | 
3 | O=C(Nc1ccc(Br)c(NC(=O)c2ccc3nc(OCCN4CCCC4)ccc3c2)c1)c1ccc2c(c1)OCCO2 [Example 139, N-(2-bromo-5-(2,3-dihydrobenzo[b][1,4]dioxine-6-carboxamido)phenyl)-2-(2-(pyrrolidin-1-yl)ethoxy)quinoline-6-carboxamide] | 20 | 23 |  | 
4 | COCc1ccc(NC(=O)c2ccc3c(c2)OCCO3)cc1NC(=O)c1ccc2nc(C)ccc2c1 [Example 166, N-(5-(2,3-dihydrobenzo[b][1,4]dioxine-6-carboxamido)-2-(methoxymethyl)phenyl)-2-methylquinoline-6-carboxamide] | 298 | 68 |  | 
5 | Cc1ccc(NC(=O)c2ccc3c(c2)OCCO3)cc1NC(=O)c1ccc2nc(O[C@@H]3CCN(C)C3)ccc2c1 [Example 49, (R)—N-(5-(2,3-dihydrobenzo[b][1,4]dioxine-6-carboxamido)-2-methylphenyl)-2-((1-methylpyrrolidin-3-yl)oxy)quinoline-6-carboxamide] | 2 | 8 |  | 
6 | Cc1ccc(NC(=O)c2ccc3c(c2)OCCO3)cc1NC(=O)c1ccc2nc(OCC(C)N3CCCC3)ccc2c1 (stereo not shown) [Example 68, N-(5-(2,3-dihydrobenzo[b][1,4]dioxine-6-carboxamido)-2-methylphenyl)-2-(2-(pyrrolidin-1-yl)propoxy)quinoline-6-carboxamide] | 41 | 12 |  | 
7 | COc1ccc(C(=O)Nc2cc(NC(=O)c3ccc4c(c3)OCCO4)ccc2C)cc1Cl [Example 28, N-(3-(3-chloro-4-methoxybenzamido)-4-methylphenyl)-2,3-dihydrobenzo[b][1,4]dioxine-6-carboxamide] | 416 | 415 |  | 
8 | Cc1ccc(NC(=O)c2ccc3c(c2)OCCO3)cc1NC(=O)c1ccc2nc(OC[C@@H]3CCCN3C)ccc2c1 [Example 53, (S)—N-(5-(2,3-dihydrobenzo[b][1,4]dioxine-6-carboxamido)-2-methylphenyl)-2-((1-methylpyrrolidin-2-yl)methoxy)quinoline-6-carboxamide] | 7 | 7 |  | 
9 | COc1ccnc2ccc(C(=O)Nc3cc(NC(=O)c4ccc5c(c4)OCCO5)ccc3C)cc12 [Example 11, N-(5-(2,3-dihydrobenzo[b][1,4]dioxine-6-carboxamido)-2-methylphenyl)-4-methoxyquinoline-6-carboxamide] | 38 | 95 |  | 
10 | Cc1ccc(NC(=O)c2ccc3c(c2)OCCO3)cc1NC(=O)c1cnc2[nH]ccc2c1 [Example 100, N-(5-(2,3-dihydrobenzo[b][1,4]dioxine-6-carboxamido)-2-methylphenyl)-1H-pyrrolo[2,3-b]pyridine-5-carboxamide] | 43 | 54 |  | 
11 | CCC(=O)N(C)Cc1ccc2cc(C(=O)Nc3cc(NC(=O)c4ccc5c(c4)OCCO5)ccc3C)ccc2n1 [Example 78, N-(5-(2,3-dihydrobenzo[b][1,4]dioxine-6-carboxamido)-2-methylphenyl)-2-((N-methylpropionamido)methyl)quinoline-6-carboxamide] | 45 | 91 |  | 
12 | Cc1ccc(NC(=O)c2ccc3c(c2)OCCO3)cc1NC(=O)c1ccc2nc(CN(C)C)ccc2c1 [Example 71, N-(5-(2,3-dihydrobenzo[b][1,4]dioxine-6-carboxamido)-2-methylphenyl)-2-((dimethylamino)methyl)quinoline-6-carboxamide] | 82 | 118 |  | 
13 | Cc1ccc(NC(=O)c2ccc3c(c2)OCCO3)cc1NC(=O)c1cc(F)c2ncccc2c1 [Example 136, N-(5-(2,3-dihydrobenzo[b][1,4]dioxine-6-carboxamido)-2-methylphenyl)-8-fluoroquinoline-6-carboxamide] | 14 | 4 |  | 
14 | Cc1ccc2cc(C(=O)Nc3cc(NC(=O)c4ccc5c(c4)OCCO5)ccc3CO)ccc2n1 [Example 167, N-(5-(2,3-dihydrobenzo[b][1,4]dioxine-6-carboxamido)-2-(hydroxymethyl)phenyl)-2-methylquinoline-6-carboxamide] | 176 | 86 |  | 
15 | Cc1ccc(NC(=O)c2ccc3c(c2)OCCO3)cc1NC(=O)c1ccc2nc(OCCCN3CCCCC3)ccc2c1 [Example 52, N-(5-(2,3-dihydrobenzo[b][1,4]dioxine-6-carboxamido)-2-methylphenyl)-2-(3-(piperidin-1-yl)propoxy)quinoline-6-carboxamide] | 12 | 6 |  | 
16 | Cc1ccc(NC(=O)c2ccc3c(c2)OCCO3)cc1NC(=O)c1ccc(O)cc1 [Example 93, N-(3-(4-hydroxybenzamido)-4-methylphenyl)-2,3-dihydrobenzo[b][1,4]dioxine-6-carboxamide] | 2460 | 798 |  | 
17 | N#Cc1ccc(NC(=O)c2ccc3c(c2)OCCO3)cc1NC(=O)c1ccc2ncccc2c1 [Example 140, N-(2-cyano-5-(2,3-dihydrobenzo[b][1,4]dioxine-6-carboxamido)phenyl)quinoline-6-carboxamide] | 31 | 34 |  | 
18 | Cc1ccc(NC(=O)c2ccc3c(c2)OCCO3)cc1NC(=O)c1ccc2c(ccn2C)c1 [Example 16, N-(5-(2,3-dihydrobenzo[b][1,4]dioxine-6-carboxamido)-2-methylphenyl)-1-methyl-1H-indole-5-carboxamide] | 94 | 31 |  | 
19 | O=C(Nc1ccc(Cl)c(NC(=O)c2ccc3ncccc3c2)c1)c1ccc2c(c1)OCCO2 [Example 149, N-(2-chloro-5-(2,3-dihydrobenzo[b][1,4]dioxine-6-carboxamido)phenyl)quinoline-6-carboxamide] | 63 | 20 |  | 
20 | Cc1ccc(NC(=O)c2ccc3c(c2)OCCO3)cc1NC(=O)c1ccc2c(c1)CCC(=O)N2 [Example 103, N-(5-(2,3-dihydrobenzo[b][1,4]dioxine-6-carboxamido)-2-methylphenyl)-2-oxo-1,2,3,4-tetrahydroquinoline-6-carboxamide] | 60 | 74 |  | 
21 | 2-(2-aminoethoxy)-N-(5-(2,3-dihydrobenzo[b][1,4]dioxine-6-carboxamido)-2-methyl)phenyl)quinoline-6-carboxamide [Example 89] |  |  | 13 | 15
22 | Cc1ccc(NC(=O)c2ccc3c(c2)OCCO3)cc1NC(=O)c1ccc2c(c1)CCCO2 [Example 9, N-(3-(chroman-6-carboxamido)-4-methylphenyl)-2,3-dihydrobenzo[b][1,4]dioxine-6-carboxamide] | 22 | 90 |  | 
23 | Cc1ccc(NC(=O)c2ccc3c(c2)OCCO3)cc1NC(=O)c1ccc2nc(OCCN(C)C)ccc2c1 [Example 62, N-(5-(2,3-dihydrobenzo[b][1,4]dioxine-6-carboxamido)-2-methylphenyl)-2-(2-(dimethylamino)ethoxy)quinoline-6-carboxamide] | 17 | 16 |  | 
